# In ChEMBL document CHEMBL1125385, “Novel inhibitors of prolyl 4-hydroxylase. 2. 5-Amide substituted pyridine-2-carboxylic acids” (J Med Chem, 1992):
# Test system: Prolyl 4-hydroxylase (Gallus gallus); call rule not given here
# Experiment: Inhibition of Prolyl 4-hydroxylase activity in cultured embryonic chick tendon cells; NA=Not active
row,Compound,IC50
1,O=C(O)c1ccc(NC(=O)c2ccccc2F)cn1,Not Active
2,O=C(Nc1ccccc1Cl)c1ccc(C(=O)O)nc1,Not Active
3,COc1ccc(NC(=O)c2ccc(C(=O)O)nc2)c(OC)c1,Not Active
4,CN(C)c1ccc(NC(=O)c2ccc(C(=O)O)nc2)cc1,Not Active
5,Cc1ccc(NC(=O)c2ccc(C(=O)O)nc2)cc1,Not Active

# Continued, values first:
row,IC50,Compound
1,Not Active,CN(C)c1ccc(C(=O)Nc2ccc(C(=O)O)nc2)cc1
2,Not Active,COc1ccccc1NC(=O)c1ccc(C(=O)O)nc1
3,Not Active,CCOc1ccc(C(=O)Nc2ccc(C(=O)O)nc2)cc1
